Results taken from ChEMBL document CHEMBL1201862, “PubChem BioAssay data set” (2004).
Activity calls are given as the source filed them.

How the values were obtained:
Cytochrome P450 3A4 = Cytochrome P450 3A4 (Homo sapiens, UniProt P08684);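 also: CYP3A4 tested as one member of a cytochrome P450 panel screen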
Cytochrome P450 2C19 = Cytochrome P450 2C19 (Homo sapiens, UniProt P33261); test: Cytochrome panel assay with activity outcomes. Panel member name: p450-cyp2c19 Compounds with AC50 equal or less than 10 uM are considered active; assay type: functional; details: read-out: AC50
Chain of Cytochrome P450 2C19 (P33261 whole entry): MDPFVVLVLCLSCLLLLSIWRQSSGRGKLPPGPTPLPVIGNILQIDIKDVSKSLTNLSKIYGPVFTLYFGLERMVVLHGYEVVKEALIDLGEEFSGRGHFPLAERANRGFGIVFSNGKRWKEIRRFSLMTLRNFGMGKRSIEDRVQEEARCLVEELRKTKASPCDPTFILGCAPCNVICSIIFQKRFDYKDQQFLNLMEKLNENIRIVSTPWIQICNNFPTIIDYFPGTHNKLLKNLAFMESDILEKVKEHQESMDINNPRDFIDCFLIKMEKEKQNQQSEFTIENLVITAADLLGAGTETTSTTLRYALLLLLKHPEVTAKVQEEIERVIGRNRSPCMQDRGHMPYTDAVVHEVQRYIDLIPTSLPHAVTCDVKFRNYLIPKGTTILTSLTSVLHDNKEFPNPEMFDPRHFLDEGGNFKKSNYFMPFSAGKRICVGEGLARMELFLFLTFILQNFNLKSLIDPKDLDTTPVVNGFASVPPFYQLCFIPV

[1] = target: Intestinal-type alkaline phosphatase (Homo sapiens, UniProt P09923); test: Dose Response confirmation of uHTS hits from a small molecule inhibitors of human intestinal alkaline phosphatase via a luminescent assay. [Related pubchem assays (depositor defined):AID2544, AID2574]; assay type: functional
Chain of Intestinal-type alkaline phosphatase (P09923 whole entry): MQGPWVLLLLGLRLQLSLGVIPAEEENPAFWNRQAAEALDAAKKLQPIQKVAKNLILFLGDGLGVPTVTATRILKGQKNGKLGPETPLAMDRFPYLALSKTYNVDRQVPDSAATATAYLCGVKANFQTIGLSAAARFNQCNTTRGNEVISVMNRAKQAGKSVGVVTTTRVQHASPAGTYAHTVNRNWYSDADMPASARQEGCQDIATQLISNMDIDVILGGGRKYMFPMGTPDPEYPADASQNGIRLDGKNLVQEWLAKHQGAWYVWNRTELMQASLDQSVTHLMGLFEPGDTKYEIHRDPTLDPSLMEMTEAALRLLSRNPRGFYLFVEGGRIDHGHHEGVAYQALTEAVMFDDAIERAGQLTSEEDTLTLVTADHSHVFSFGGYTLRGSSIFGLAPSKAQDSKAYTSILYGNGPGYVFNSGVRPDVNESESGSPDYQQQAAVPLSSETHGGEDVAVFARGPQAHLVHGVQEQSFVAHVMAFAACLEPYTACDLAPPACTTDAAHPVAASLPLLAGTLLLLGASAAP

[2] = Luminescence Cell-Based Dose Retest to Confirm Inhibitors of Cancer Stem Cells. [Related pubchem assays (depositor defined):AID2717, AID2721]; assay type: functional; details: Homo sapiens
[3] = target: Neurotensin receptor type 1 (Homo sapiens, UniProt P30989); assay type: functional;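 also: Image-based confirmatory dose-response assay measuring agonist activity at NTR1; NTR1-expressing U2OS osteosarcoma cells imaged for beta-arrestin GFP spot formation; agonist potency where compounds increase beta-arrestin recruitment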
Chain of Neurotensin receptor type 1 (P30989 whole entry): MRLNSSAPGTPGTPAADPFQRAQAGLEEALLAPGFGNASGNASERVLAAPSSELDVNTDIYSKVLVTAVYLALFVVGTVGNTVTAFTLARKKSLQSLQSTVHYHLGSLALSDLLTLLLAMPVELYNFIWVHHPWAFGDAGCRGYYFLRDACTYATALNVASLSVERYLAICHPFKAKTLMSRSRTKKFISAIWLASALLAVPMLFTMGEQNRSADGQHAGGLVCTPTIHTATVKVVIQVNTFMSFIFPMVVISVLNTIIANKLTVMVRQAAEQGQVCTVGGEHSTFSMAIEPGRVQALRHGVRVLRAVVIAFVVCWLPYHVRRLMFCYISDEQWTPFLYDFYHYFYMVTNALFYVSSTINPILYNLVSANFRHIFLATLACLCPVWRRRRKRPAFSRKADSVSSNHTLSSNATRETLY

[4] = target: T1, Histone-lysine N-methyltransferase NSD2 (Homo sapiens, UniProt O96028); assay type: biochemical
T1 sequence (O96028 whole entry): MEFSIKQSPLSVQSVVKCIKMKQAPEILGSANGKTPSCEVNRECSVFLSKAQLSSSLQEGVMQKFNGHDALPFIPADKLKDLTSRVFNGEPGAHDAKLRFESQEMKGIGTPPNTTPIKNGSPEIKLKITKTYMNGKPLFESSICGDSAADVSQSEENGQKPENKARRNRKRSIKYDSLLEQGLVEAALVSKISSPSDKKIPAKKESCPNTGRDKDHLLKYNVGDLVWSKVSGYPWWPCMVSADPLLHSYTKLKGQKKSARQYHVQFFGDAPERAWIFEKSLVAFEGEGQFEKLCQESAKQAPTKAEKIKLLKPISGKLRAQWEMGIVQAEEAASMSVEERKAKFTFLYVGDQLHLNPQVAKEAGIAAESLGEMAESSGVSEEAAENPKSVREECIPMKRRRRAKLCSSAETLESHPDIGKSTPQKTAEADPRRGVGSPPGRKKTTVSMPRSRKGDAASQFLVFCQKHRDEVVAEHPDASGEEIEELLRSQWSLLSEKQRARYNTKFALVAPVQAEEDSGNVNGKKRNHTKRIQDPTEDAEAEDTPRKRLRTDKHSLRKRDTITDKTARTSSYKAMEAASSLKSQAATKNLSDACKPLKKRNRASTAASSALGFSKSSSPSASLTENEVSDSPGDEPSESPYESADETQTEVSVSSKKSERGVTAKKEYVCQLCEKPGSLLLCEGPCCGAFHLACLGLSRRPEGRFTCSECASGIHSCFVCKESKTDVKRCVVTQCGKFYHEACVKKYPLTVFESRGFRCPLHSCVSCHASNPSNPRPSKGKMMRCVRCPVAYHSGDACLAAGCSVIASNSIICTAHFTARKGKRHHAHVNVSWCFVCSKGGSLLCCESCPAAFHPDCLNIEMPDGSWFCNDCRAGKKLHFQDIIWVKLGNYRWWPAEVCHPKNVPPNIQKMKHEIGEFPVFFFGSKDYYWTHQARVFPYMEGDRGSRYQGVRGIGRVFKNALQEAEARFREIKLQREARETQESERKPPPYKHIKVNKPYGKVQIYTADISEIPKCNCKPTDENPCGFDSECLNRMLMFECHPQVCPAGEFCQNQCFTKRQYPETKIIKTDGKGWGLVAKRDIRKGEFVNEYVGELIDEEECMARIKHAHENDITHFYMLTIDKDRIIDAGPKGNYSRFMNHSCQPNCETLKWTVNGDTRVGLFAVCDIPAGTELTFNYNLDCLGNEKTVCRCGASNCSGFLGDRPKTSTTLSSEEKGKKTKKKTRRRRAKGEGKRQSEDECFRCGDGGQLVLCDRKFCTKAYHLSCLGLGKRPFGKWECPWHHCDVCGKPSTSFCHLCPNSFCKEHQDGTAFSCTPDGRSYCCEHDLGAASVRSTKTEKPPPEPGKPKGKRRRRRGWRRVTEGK

Large T antigen = Large T antigen (Simian virus 40, UniProt P03070); assay type: functional, Betapolyomavirus macacae;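 also: Confirmatory-stage PubChem screen for compounds that inhibit SV40 T antigen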
Chain of Large T antigen (P03070 whole entry): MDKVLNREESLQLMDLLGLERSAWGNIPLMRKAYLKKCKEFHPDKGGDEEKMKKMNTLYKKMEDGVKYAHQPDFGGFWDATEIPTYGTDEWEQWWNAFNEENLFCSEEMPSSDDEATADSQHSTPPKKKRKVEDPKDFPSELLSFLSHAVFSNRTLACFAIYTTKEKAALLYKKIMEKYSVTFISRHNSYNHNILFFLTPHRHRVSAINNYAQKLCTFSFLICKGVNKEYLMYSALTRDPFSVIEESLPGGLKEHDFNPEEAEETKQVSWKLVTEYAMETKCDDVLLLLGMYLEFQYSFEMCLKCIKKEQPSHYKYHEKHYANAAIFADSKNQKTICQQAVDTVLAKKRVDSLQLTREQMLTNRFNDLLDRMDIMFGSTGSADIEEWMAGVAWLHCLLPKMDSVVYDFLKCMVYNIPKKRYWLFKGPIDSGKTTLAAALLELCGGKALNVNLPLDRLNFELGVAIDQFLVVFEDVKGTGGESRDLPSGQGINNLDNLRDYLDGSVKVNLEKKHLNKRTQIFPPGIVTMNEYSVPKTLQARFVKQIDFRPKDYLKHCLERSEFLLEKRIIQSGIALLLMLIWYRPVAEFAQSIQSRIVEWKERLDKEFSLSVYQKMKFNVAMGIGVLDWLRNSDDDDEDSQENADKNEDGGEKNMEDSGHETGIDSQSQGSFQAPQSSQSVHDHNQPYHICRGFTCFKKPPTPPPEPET

[5] = target: T2, Ubiquitin-conjugating enzyme E2 N (Homo sapiens, UniProt P61088); assay type: functional;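 also: Dose-response confirmation in a TR-FRET assay detecting UBC13-driven polyubiquitin chain formation, inhibition measured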
T2 sequence (P61088 whole entry): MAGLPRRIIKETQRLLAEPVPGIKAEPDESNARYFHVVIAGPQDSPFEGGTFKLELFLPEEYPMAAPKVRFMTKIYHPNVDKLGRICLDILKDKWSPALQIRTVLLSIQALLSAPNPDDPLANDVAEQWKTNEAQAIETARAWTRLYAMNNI

INS1 = test: beta cell apoptosis inhibitors, cytokine rescue, dose response, luminescence, retest (AID 449756); assay type: functional, cell-based; details: Rattus norvegicus;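 also: cell death triggered by IL-1 beta plus TNF-alpha plus IFN-gamma mixture; protective hits raise ATP signal compared with cytokine alone wells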
Cytochrome P450 1A2 = target: T3, Cytochrome P450 1A2 (Homo sapiens, UniProt P05177);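 also: PubChem cytochrome P450 panel assay, CYP1A2 panel member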
T3 sequence (P05177 whole entry): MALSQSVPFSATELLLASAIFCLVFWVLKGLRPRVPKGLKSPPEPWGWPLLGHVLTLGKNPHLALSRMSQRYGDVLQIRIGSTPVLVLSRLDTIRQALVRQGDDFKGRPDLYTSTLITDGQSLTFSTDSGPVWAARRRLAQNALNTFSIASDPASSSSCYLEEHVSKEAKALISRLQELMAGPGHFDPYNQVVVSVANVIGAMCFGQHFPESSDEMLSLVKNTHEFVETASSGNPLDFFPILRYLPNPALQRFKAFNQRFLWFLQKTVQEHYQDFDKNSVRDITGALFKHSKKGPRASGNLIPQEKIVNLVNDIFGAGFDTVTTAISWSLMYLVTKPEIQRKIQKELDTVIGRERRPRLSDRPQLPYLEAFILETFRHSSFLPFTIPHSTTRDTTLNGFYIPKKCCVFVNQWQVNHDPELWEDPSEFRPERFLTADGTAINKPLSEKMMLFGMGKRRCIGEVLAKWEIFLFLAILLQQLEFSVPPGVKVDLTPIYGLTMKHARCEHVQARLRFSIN

Cytochrome P450 2C9 = Cytochrome P450 2C9 (Homo sapiens, UniProt P11712)
Chain of Cytochrome P450 2C9 (P11712 whole entry): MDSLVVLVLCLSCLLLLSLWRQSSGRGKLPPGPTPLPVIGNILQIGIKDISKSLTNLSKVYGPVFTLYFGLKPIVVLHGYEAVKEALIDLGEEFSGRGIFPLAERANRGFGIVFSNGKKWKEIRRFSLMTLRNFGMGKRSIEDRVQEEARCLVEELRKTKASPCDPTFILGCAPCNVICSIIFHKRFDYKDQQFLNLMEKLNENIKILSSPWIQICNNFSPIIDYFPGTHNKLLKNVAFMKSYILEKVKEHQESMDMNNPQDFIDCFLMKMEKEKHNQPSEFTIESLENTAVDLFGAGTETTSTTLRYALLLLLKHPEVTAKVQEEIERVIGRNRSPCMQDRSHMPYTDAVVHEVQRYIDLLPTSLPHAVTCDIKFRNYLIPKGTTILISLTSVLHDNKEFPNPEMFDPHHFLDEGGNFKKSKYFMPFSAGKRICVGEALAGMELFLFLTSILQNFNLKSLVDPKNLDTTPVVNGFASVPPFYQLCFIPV

[6] = target: Dual specificity tyrosine-phosphorylation-regulated kinase 1A (Rattus norvegicus, UniProt Q63470); assay type: biochemical, Homo sapiens
[7] = target: T4, C-C chemokine receptor type 6 (Homo sapiens, UniProt P51684); test: CCR6 receptor antagonists, dose response, cell-based, luminescent beta-arrestin readout (AID 504728); assay type: functional
T4 sequence (P51684 whole entry): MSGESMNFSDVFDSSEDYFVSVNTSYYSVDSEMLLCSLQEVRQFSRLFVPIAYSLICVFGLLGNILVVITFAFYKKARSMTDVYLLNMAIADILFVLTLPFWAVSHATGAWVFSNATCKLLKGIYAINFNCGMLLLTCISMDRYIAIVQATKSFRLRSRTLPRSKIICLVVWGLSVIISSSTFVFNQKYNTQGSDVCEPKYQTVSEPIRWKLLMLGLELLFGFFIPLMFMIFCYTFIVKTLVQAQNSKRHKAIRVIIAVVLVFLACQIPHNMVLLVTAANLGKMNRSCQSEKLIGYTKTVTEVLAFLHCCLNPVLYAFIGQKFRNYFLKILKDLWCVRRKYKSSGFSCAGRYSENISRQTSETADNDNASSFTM

[8] = THP-1 cell cytotoxicity, dose response, cytotoxicity control for non-replicating M. tuberculosis project (AID 489025); assay type: functional
cells = assay type: functional
Beta-galactosidase = Beta-galactosidase (Escherichia coli, UniProt Q8VNN2); test: beta-galactosidase enzyme inhibitors and activators, dose response, artefact control for CCR6 antagonist project, biochemical, E. coli enzyme, set 3 (AID 504712); assay type: functional
Chain of Beta-galactosidase (Q8VNN2 whole entry): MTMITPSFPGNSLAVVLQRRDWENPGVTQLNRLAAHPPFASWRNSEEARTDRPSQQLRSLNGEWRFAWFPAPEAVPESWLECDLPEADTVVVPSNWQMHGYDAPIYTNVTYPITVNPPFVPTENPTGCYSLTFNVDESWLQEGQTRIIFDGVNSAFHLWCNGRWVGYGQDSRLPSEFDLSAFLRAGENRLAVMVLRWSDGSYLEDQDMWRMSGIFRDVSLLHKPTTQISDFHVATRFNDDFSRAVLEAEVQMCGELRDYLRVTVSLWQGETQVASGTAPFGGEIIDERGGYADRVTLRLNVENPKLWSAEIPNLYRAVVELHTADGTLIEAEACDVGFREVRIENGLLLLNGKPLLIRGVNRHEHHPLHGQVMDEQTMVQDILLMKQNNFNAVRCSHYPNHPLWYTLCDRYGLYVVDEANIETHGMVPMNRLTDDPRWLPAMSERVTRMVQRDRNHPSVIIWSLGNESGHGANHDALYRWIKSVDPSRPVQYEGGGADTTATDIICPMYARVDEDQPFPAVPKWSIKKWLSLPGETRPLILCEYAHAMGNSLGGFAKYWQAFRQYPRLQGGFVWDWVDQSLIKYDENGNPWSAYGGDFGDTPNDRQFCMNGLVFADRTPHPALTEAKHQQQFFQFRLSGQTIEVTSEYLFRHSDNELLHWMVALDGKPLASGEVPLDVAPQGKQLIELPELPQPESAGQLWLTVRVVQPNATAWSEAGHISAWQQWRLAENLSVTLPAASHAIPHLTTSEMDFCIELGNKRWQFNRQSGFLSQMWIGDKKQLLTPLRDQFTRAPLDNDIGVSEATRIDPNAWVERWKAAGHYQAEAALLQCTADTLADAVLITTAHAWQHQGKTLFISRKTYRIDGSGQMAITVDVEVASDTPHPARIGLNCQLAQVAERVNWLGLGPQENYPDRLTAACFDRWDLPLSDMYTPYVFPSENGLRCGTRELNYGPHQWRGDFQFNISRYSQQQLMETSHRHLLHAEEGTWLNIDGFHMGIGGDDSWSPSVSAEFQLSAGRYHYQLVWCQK

Streptokinase A = target: T5, Streptokinase A (Streptococcus pyogenes serotype M1, UniProt P10520); test: S. pyogenes streptokinase expression inhibitors, potency, dose response, plasminogen activation absorbance, OD405 (AID 1914); assay type: functional, Streptococcus pyogenes M1 GAS;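 also: secreted streptokinase activity via plasminogen activation per viability signal from cell pellet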
T5 sequence (P10520 whole entry): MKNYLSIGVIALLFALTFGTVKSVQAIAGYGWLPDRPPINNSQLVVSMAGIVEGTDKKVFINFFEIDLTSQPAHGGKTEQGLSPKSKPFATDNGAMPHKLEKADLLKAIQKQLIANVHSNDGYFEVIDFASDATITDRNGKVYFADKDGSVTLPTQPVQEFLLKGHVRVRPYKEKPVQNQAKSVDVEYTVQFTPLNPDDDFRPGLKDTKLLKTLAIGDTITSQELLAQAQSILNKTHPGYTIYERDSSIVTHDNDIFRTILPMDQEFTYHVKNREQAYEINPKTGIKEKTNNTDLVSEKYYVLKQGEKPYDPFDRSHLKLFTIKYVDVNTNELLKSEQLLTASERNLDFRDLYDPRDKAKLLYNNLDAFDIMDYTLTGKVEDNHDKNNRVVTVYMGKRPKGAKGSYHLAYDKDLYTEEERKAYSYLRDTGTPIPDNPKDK

[9] = tested on: Streptococcus sp. 'group A'; test: growth inhibition of control SK(-) GAS strain, dose response, counter-screen for streptokinase expression inhibitor project, luminescence, kanamycin, BacTiterGlo, confirmation (AID 1900); assay type: functional, organism-based
[10] = target: Heat shock protein HSP 90-alpha (Homo sapiens, UniProt P07900); assay type: functional, organism-based
Streptococcus = test: Group A Streptococcus viability loss, dose response, counter-screen for streptokinase expression inhibitor project, luminescence, BacTiterGlo (AID 1915); assay type: functional, organism-based;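 also: potency for reduction of bacterial viability or growth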

Chain of Cytochrome P450 3A4 (P08684 whole entry): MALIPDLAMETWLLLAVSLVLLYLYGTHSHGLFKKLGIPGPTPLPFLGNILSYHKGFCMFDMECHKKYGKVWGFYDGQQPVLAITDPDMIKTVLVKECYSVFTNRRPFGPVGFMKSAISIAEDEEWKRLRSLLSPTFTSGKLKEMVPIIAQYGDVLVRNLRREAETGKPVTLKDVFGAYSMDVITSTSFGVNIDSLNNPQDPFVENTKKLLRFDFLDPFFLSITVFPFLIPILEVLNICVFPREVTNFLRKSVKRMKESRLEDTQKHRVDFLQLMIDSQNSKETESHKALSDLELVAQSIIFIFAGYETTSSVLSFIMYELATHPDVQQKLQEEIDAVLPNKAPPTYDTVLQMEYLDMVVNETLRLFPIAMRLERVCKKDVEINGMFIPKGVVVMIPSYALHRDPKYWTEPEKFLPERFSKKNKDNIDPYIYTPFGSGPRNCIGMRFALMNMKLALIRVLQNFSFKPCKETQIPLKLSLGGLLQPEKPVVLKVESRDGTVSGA

Compound: Cc1c2c(nc3c(C(=O)NC4CCCC4)cnn13)CCCC2
- AC50 (Cytochrome P450 3A4): inconclusive
- AC50 (Cytochrome P450 2C19): 39.8 µM (inconclusive)

Compound: COc1ccccc1C1CN(c2ccccc2)N=C1c1cccs1 (centres undefined)
- IC50 [1]: > 100 µM (inactive)

Compound: COc1cc(/C=C2\C(=O)ON=C2c2ccc(Cl)cc2)ccc1O
- AC50 [2]: 1.76 µM (active)
- EC50 [3]: 12.1 µM (active)
- AC50 [4]: > 20 µM (inactive)
- IC50 (Large T antigen): 14.6 µM (active)

Compound: COC(=O)C1=C(C)N(Cc2ccccc2)C(NCc2ccccc2)=N[C@H]1c1cccc(C(F)(F)F)c1
- IC50 [5]: > 20 µM (inactive)
- AC50 [2]: 3.27 µM (active)
- EC50 [3]: 13.7 µM (active)
- AC50 (INS1): 8.05 µM (active)

Compound: O=C(c1cc(-c2ccccc2Cl)on1)N1CCN(C(=O)c2ccco2)CC1
- AC50 (Cytochrome P450 3A4): inconclusive
- AC50 (Cytochrome P450 2C19): 25.1 µM (inconclusive)
- AC50 (Cytochrome P450 1A2): 25.1 µM (inconclusive)
- AC50 (Cytochrome P450 2C9): inconclusive

Compound: C=C(C)[C@@H](O)COc1c2ccoc2cc2oc(=O)ccc12
- AC50 [6]: 9.08 µM (active)

Compound: CC1=C(/C=C/C(C)=N\NC(=O)c2ccncc2)C(C)(C)CCC1
- IC50 [7]: > 66.6 µM (inactive)
- CC50 [8]: > 40 µM (active)
- IC50 (cells): 0.61 µM (active)
- IC50 (Beta-galactosidase): > 66.6 µM (inactive)

Compound: Oc1ccc(/C=N/N(Cc2ccccc2)c2ccccc2)cc1
- EC50 (Streptokinase A): > 150 µM (not active)
- EC50 [9]: 7.47 µM (active)
- AC50 [10]: 9.12 µM (active)
- EC50 (Streptococcus): 9.38 µM (active)
